Experimental data reported in patent US20130150399A1, “INHIBITORS OF THE UNFOLDED PROTEIN RESPONSE AND METHODS FOR THEIR USE” (The Board of Trustees of the Leland Stanford Junior …, priority 2006, published 2013).

Experiments:
[1] = tested on: HT1080 fibrosarcoma; test: Cell proliferation assay, HT1080; format: cell-based, human; conditions: normal conditions; same concentrations
Description: A. Effect of irestatin 9389 on PERK and ATF6 pathways. HT1080 cells were treated with vehicle alone (lanes 1-4) or 2.5 μM irestatin 9389 (lanes 5-8) and cultured under aerobic conditions for 18 hours (N) or shifted to hypoxia for the indicated times. Protein lysates were analyzed by Western blot analysis using antisera specific for ATF6 (top), CHOP/GADD153 (middle) or actin (bottom). Arrow indicates the cleaved, transcriptionally active form of ATF6. B. Cleavage of caspase-3 in irestatin-treated cells under hypoxia. HT1080 cells were cultured in normoxia (N) or under hypoxia for 36 hours (H 36) in absence or presence of irestatin 9389 (2.5 μM). Arrows indicate proteolytically cleaved caspase-3. C. Colony formation assay. HT1080 cells were treated as in B under normoxia (N) or hypoxia for 48 hours (H 48). Cells were harvested, counted, and allowed to grow under normal culture conditions for 11-12 days. Colonies were visualized with crystal violet staining. D. Quantification of clonogenic survival assay. Values represent the mean+/−SEM from at least 4 independent experiments. E. TUNEL staining of cells treated as in C. F. Quantification of TUNEL-positive cells. Values represent the mean+/− SEM from at least 3 experiments. […] Cells were harvested at the indicated times and counted by hemocytometer. Values represent the mean calculated from triplicate experiments+/−SEM.

[2] = Potential toxicities of irestatin 9389, increasing i.p. doses; format: in vivo
Description: Female 4-6 week-old SCID (B6.CB 17) mice supplied by Stanford University Animal Facility were housed in the same facility (American Association of Laboratory Animal Care-approved) with 12 hour light cycles. Food and water were provided ad libitum. All experiments were approved by the institutional care and use committee. The potential toxicities of irestatin 9389 were examined in SCID mice injected i.p. once daily over 4 consecutive days with increasing doses of irestatin 9389 or vehicle control. […] For xenografts, 2×10^6 HT1080 fibrosarcoma cells were resuspended in 50-75 μl PBS and injected s.c. in the dorsal flanks of host mice. When the implanted tumors reached a mean volume of ˜150 mm^3, mice were randomly assigned into different treatment groups. Mice were dosed by i.p. bolus injection with either vehicle (50% DMSO, 20% cremophor EL, 30% ethanol) or irestatin 9389 (50 mg/kg). Tumors (6-8 per group) were measured every 2-4 days with calipers. Tumor volume was calculated using the formula [(W^2×L) 0.52] where W=width and L=length.

[3] = tested on: P58^IPK, DER-1; test: Northern blot of XBP-1s transcription targets, HT1080 cells; format: cell-based, human; conditions: 2 μM; Tm or hypoxia 24 hours
Description: Cells were cultured in 10 cm plates, harvested, and total RNA recovered with Trizol (Invitrogen, San Diego, Calif.). Total RNA (10 μg) was resolved on a 1% agarose-formaldehyde gel. ^32P-labeled probes were prepared using the Rediprime II random-prime labeling kit (GE-Amersham, Buckinghamshire, UK). The primers used to PCR amplify probes are as follows. P58^IPK: 5′[…] 3′ (SEQ ID NO: 4); 5′ […] 3′ (SEQ ID NO: 5). DER-1: 5′ […] 3′ (SEQ ID NO: 6); 5′[…] 3′ (SEQ ID NO: 7). Blots were incubated with probe overnight, washed three times in 2×SSC/0.2% SDS, dried, and exposed to a phosphorimager screen overnight. Images were analyzed using ImageQuant software (Molecular Dynamics).
A. XBP-luciferase reporter construct. Firefly luciferase was inserted downstream of the IRE1α splice site in human XBP-1 to enable the conditional translation of luciferase under ER stress in an IRE1α-dependent manner. […] After 24 hours, luciferase activity was analyzed in an automated plate reader. For each cell line, values are expressed as the percent inhibition of the median for Tm/Tg-treated wells, corrected for background. […] Values are expressed as the fold increases over uninduced levels. […] Cells were harvested, lysed, and analyzed by immunoblotting with antisera specific for HIF-1α (top), XBP-1s (middle) or actin (bottom). […] Total RNA was analyzed by Northern blotting using radiolabeled probes specific for P58^IPK or DER-1. […]

Cc1csc(NC(=O)CSc2nc3c(c(C(F)(F)F)c2C#N)CCC3)n1 [Compound 9389]
growth rate of HT1080 cells [1]: negligible effect on the growth rate | toxicity ([2]; dosing regimen of 50-60 mg/kg i.p.): without apparent toxicity | dosing regimen of 50-60 mg/kg as share of the LD50 value ([2]; female, SCID (B6.CB 17), mouse, in vivo, 4 days): 75% | induction of P58^IPK and DER-1 expression [3]: fully inhibited this response
